Experimental data taken from patent publication US10407409B2, “6-(5-hydroxy-1H-pyrazol-1-yl)nicotinamide inhibitors of PHD” (Takeda Pharmaceutical Company Limited, priority 2013, dated 2019).

How the values were obtained:
[1] = biological target: PHD2 enzyme (residues 181-417) (Homo sapiens (Human), UniProt Q9GZT9); assay: Inhibition of PHD enzyme (LC/MS peptide hydroxylation assay); type: biochemical; conditions: PHD2 (residues 181-417) 5 nM, 60 min pre-incubation; -log(IC50), IC50 molar
Summary of the method: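 PHD2 (5 nM final) preincubated with inhibitor 60 min at RT in 50 mM HEPES, 50 mM KCl, 0.5 mM TCEP, 2 uM FeCl2, 0.1 mg/ml BSA, pH 7.3. Reaction started with biotin-peptide (1 uM), 2-oxoglutarate (2 uM), ascorbate (1 mM), quenched at 60 min; hydroxylated product by LC/MS, reported as pIC50.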

[2] = system: HIF1a protein in H9c2 rat cardiomyocytes; assay: Cell-based HIF-alpha stabilization assay (inhibition of PHD in cells); conditions: 24 hrs compound incubation, HIF1a protein by ELISA; for EC50: Rattus norvegicus, H9c2, 24 h, read-out: Inhibition of PHD in cells (pEC50) (converted)
Summary of the method: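 Rat H9c2 cardiomyocytes, cultured 24 h, were treated 24 h with an 11-point serial dilution of compound. HIF1a in whole-cell lysates was quantified by ELISA as % of the maximal desferrioxamine response. EC50 came from curve fitting; EC50pos is the concentration reaching 50% of the desferrioxamine maximum.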

Chain of PHD2 enzyme (residues 181-417) (Q9GZT9 181-417): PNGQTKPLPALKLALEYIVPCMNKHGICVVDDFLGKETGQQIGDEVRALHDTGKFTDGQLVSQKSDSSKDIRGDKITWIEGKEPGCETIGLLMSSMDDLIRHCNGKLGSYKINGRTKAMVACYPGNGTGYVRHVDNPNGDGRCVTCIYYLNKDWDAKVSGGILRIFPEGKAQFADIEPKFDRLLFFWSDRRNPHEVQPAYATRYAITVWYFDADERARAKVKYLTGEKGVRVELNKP

Row | SMILES | PHD Inhibition (pIC50) [1] | EC50 [2] [nM] | Inhibition of PHD in cells (pEC50) [2]
1 | Cc1cc(-n2ncc(-c3ccc(C#N)cc3)c2O)ncc1C(=O)N[C@H]1CC[C@@H](O)CC1 [Example 278, 6-(4-(4-cyanophenyl)-5-hydroxy-1H-pyrazol-1-yl)-N-((1s,4s)-4-hydroxycyclohexyl)-4-methylnicotinamide] | 7.05 | 3240 | 
2 | Cc1cc(-n2ncc(-c3ccc(C#N)cc3)c2O)ncc1C(=O)NCCC1CCCOC1 (stereo not shown) [Example 279, 6-(4-(4-cyanophenyl)-5-hydroxy-1H-pyrazol-1-yl)-4-methyl-N-(2-(tetrahydro-2H-pyran-3-yl)ethyl)nicotinamide] | 7.1 | 2630 | 
3 | O=C(NCc1ccccc1)c1ccc(-n2ncc(-c3ccccn3)c2O)cc1 [Example 280, N-benzyl-4-(5-hydroxy-4-(pyridin-2-yl)-1H-pyrazol-1-yl)benzamide] | 5.69 | 50100 | 
4 | N#Cc1ccc(-c2cnn(-c3ccc(C(=O)NCc4ccccc4)cn3)c2O)cc1 [Example 281, N-benzyl-6-(4-(4-cyanophenyl)-5-hydroxy-1H-pyrazol-1-yl)nicotinamide] | 7.37 | 257 | 
5 | CO[C@H]1CC[C@@H](NC(=O)c2ccc(-n3ncc(-c4ccc(C#N)cc4F)c3O)nc2)CC1 [Example 284, 6-(4-(4-cyano-2-fluorophenyl)-5-hydroxy-1H-pyrazol-1-yl)-N-((1 s,4s)-4-methoxycyclohexyl)nicotinamide] | 8.21 | 1290 | 
6 | COCCCCNC(=O)c1ccc(-n2ncc(-c3ccc(C#N)cc3F)c2O)nc1 [Example 285, 6-(4-(4-cyano-2-fluorophenyl)-5-hydroxy-1H-pyrazol-1-yl)-N-(4-methoxybutyl)nicotinamide] | 8.48 | 933 | 
7 | Cc1cc(C#N)ccc1-c1cnn(-c2ccc(C(=O)N(C)CCN(C)C)cn2)c1O [Example 286, 6-(4-(4-cyano-2-methylphenyl)-5-hydroxy-1H-pyrazol-1-yl)-N-(2-(dimethylamino)ethyl)-N-methylnicotinamide] | 7.94 | 603 | 
8 | Cc1cc(C#N)ccc1-c1cnn(-c2ccc(C(=O)N(C)C3CCN(C4CC4)CC3)cn2)c1O [Example 296, 6-(4-(4-cyano-2-methylphenyl)-5-hydroxy-1H-pyrazol-1-yl)-N-(1-cyclopropylpiperidin-4-yl)-N-methylnicotinamide] | 8.23 | 1000 | 
9 | COCCCNC(=O)c1ccc(-n2ncc(-c3ccc(C#N)cc3C3CC3)c2O)nc1 [Example 300, 6-(4-(4-cyano-2-cyclopropylphenyl)-5-hydroxy-1H-pyrazol-1-yl)-N-(3-methoxypropyl)nicotinamide] | 7.99 | 17.4 | 
10 | Cc1cc(C#N)ccc1-c1cnn(-c2ccc(C(=O)NC3CCN(CC(F)(F)F)CC3)cn2)c1O [Example 302, 6-(4-(4-cyano-2-methylphenyl)-5-hydroxy-1H-pyrazol-1-yl)-N-(1-(2,2,2-trifluoroethyl)piperidin-4-yl)nicotinamide] | 8.41 | 288 | 
11 | Cc1cc(C#N)ccc1-c1cnn(-c2ccc(C(=O)N(C)CCCN3CCCCC3)cn2)c1O [Example 303, 6-(4-(4-cyano-2-methylphenyl)-5-hydroxy-1H-pyrazol-1-yl)-N-methyl-N-(3-(piperidin-1-yl)propyl)nicotinamide] | 7.88 | 282 | 
12 | CN(CCCN1CCCCC1)C(=O)c1ccc(-n2ncc(-c3ccc(C#N)cc3)c2O)nc1 [Example 304, 6-(4-(4-cyanophenyl)-5-hydroxy-1H-pyrazol-1-yl)-N-methyl-N-(3-(piperidin-1-yl)propyl)nicotinamide] | 7.23 | 2820 | 
13 | Cc1cc(C#N)c(F)cc1-c1cnn(-c2ccc(C(=O)N3CCN(C4CC4)CC3)cn2)c1O [Example 308, 4-(1-(5-(4-cyclopropylpiperazine-1-carbonyl)pyridin-2-yl)-5-hydroxy-1H-pyrazol-4-yl)-2-fluoro-5-methylbenzonitrile] | 8.28 | 6610 | 

Continued, in another order:

Row | PHD Inhibition (pIC50) [1] | SMILES | EC50 [2] [nM] | Inhibition of PHD in cells (pEC50) [2]
14 | 8.60 | CCCN1CCN(C(=O)c2ccc(-n3ncc(-c4ccc(C#N)cc4C)c3O)nc2)CC1 [Example 283, 4-(5-hydroxy-1-(5-(4-propylpiperazine-1-carbonyl)pyridin-2-yl)-1H-pyrazol-4-yl)-3-methylbenzonitrile] |  | 5.72
15 | 8.10 | Cc1cc(C#N)ccc1-c1cnn(-c2ccc(C(=O)N3CCCN(C)CC3)cn2)c1O [Example 287, 4-(5-hydroxy-1-(5-(4-methyl-1,4-diazepane-1-carbonyl)pyridin-2-yl)-1H-pyrazol-4-yl)-3-methylbenzonitrile] | 3550 | 
16 | 8.03 | Cc1cc(C#N)ccc1-c1cnn(-c2ccc(C(=O)N(C)C3CCN(C)CC3)cn2)c1O [Example 289, 6-(4-(4-cyano-2-methylphenyl)-5-hydroxy-1H-pyrazol-1-yl)-N-methyl-N-(1-methylpiperidin-4-yl)nicotinamide] | 1230 | 
17 | 8.33 | Cc1cc(C#N)ccc1-c1cnn(-c2ccc(C(=O)N3CCN(C)CC3)cn2)c1O [Example 290, 4-(5-hydroxy-1-(5-(4-methylpiperazine-1-carbonyl)pyridin-2-yl)-1H-pyrazol-4-yl)-3-methylbenzonitrile] | 912 | 
18 | 8.15 | Cc1cc(C#N)ccc1-c1cnn(-c2ccc(C(=O)N3CCN(C(C)(C)C)CC3)cn2)c1O [Example 291, 4-(1-(5-(4-(tert-butyl)piperazine-1-carbonyl)pyridin-2-yl)-5-hydroxy-1H-pyrazol-4-yl)-3-methylbenzonitrile] | 977 | 
19 | 8.04 | Cc1cc(C#N)ccc1-c1cnn(-c2ccc(C(=O)N3C[C@H]4CN(C)C[C@H]4C3)cn2)c1O [Example 292, 4-(5-hydroxy-1-(5-((3aR,6aS)-5-methyloctahydropyrrolo[3,4-c]pyrrole-2-carbonyl)pyridin-2-yl)-1H-pyrazol-4-yl)-3-methylbenzonitrile] | 407 | 
20 | 8.05 | Cc1cc(C#N)ccc1-c1cnn(-c2ccc(C(=O)N3CCC4(CN(C)C4)C3)cn2)c1O [Example 293, 4-(5-hydroxy-1-(5-(2-methyl-2,6-diazaspiro[3.4]octane-6-carbonyl)pyridin-2-yl)-1H-pyrazol-4-yl)-3-methylbenzonitrile] | 324 | 
21 | 8.22 | CCCN1CCC(N(C)C(=O)c2ccc(-n3ncc(-c4ccc(C#N)cc4C)c3O)nc2)CC1 [Example 294, 6-(4-(4-cyano-2-methylphenyl)-5-hydroxy-1H-pyrazol-1-yl)-N-methyl-N-(1-propylpiperidin-4-yl)nicotinamide] | 1120 | 
22 | 8.39 | Cc1cc(C#N)ccc1-c1cnn(-c2ccc(C(=O)N3CC(N(C)C4CCC4)C3)cn2)c1O [Example 297, 4-(1-(5-(3-(cyclobutyl(methyl)amino)azetidine-1-carbonyl)pyridin-2-yl)-5-hydroxy-1H-pyrazol-4-yl)-3-methylbenzonitrile] | 525 | 
23 | 8.18 | Cc1cc(C#N)ccc1-c1cnn(-c2ccc(C(=O)N3CC(N(C)C4CC4)C3)cn2)c1O [Example 298, 4-(1-(5-(3-(cyclopropyl(methyl)amino)azetidine-1-carbonyl)pyridin-2-yl)-5-hydroxy-1H-pyrazol-4-yl)-3-methylbenzonitrile] | 977 | 
24 | 8.46 | Cc1cc(C#N)ccc1-c1cnn(-c2ccc(C(=O)N3CCN(C)CC(F)(F)C3)cn2)c1O [Example 299, 4-(1-(5-(6,6-difluoro-4-methyl-1,4-diazepane-1-carbonyl)pyridin-2-yl)-5-hydroxy-1H-pyrazol-4-yl)-3-methylbenzonitrile] | 1050 | 
25 | 8.67 | Cc1cc(C#N)ccc1-c1cnn(-c2ccc(C(=O)N(C)C)cn2)c1O [Example 301, 6-(4-(4-cyano-2-methylphenyl)-5-hydroxy-1H-pyrazol-1-yl)-N,N-dimethylnicotinamide] | 251 | 
26 | 8.27 | CCN1CCN(C(=O)c2ccc(-n3ncc(-c4ccc(C#N)c(F)c4C)c3O)nc2)CC1 [Example 305, 4-(1-(5-(4-ethylpiperazine-1-carbonyl)pyridin-2-yl)-5-hydroxy-1H-pyrazol-4-yl)-2-fluoro-3-methylbenzonitrile] | 1320 | 
27 | 8.29 | CCN1CCN(C(=O)c2ccc(-n3ncc(-c4cc(F)c(C#N)cc4C)c3O)nc2)CC1 [Example 306, 4-(1-(5-(4-ethylpiperazine-1-carbonyl)pyridin-2-yl)-5-hydroxy-1H-pyrazol-4-yl)-2-fluoro-5-methylbenzonitrile] | 4570 | 
28 | 8.39 | Cc1c(-c2cnn(-c3ccc(C(=O)N4CCN(C5CC5)CC4)cn3)c2O)ccc(C#N)c1F [Example 307, 4-(1-(5-(4-cyclopropylpiperazine-1-carbonyl)pyridin-2-yl)-5-hydroxy-1H-pyrazol-4-yl)-2-fluoro-3-methylbenzonitrile] | 2340 | 
29 | 7.97 | CCN1CCN(C(=O)c2ccc(-n3ncc(-c4ccc(C#N)c(C)c4C)c3O)nc2)CC1 [Example 309, 4-(1-(5-(4-ethylpiperazine-1-carbonyl)pyridin-2-yl)-5-hydroxy-1H-pyrazol-4-yl)-2,3-dimethylbenzonitrile] | 2630 | 
